From ChEMBL document CHEMBL5518248, “Design, Synthesis, and Biological Evaluation of Novel Arylomycins against Multidrug-Resistant Gram-Negative Bacteria” (J Med Chem, 2024) come the findings set out here.

Data set [1] can be described thus: AUC (0 to t) in Sprague-Dawley rat at 10 mg/kg, iv measured upto 24 hrs LC-MS/MS analysis. The following applies: Sprague-Dawley, in vivo. It counts as ADME, organism-based.
The nature of data set [2]: MRT in Sprague-Dawley rat at 10 mg/kg, iv measured upto 24 hrs LC-MS/MS analysis. It counts as ADME, organism-based. The conditions noted are these: in vivo.
Data set [3] is described as follows: Half life in Sprague-Dawley rat at 10 mg/kg, iv measured upto 24 hrs LC-MS/MS analysis. Type of data set: ADME, organism-based. The following applies: in vivo.
Data set [4] in a line: Clearance in Sprague-Dawley rat at 10 mg/kg, iv measured upto 24 hrs LC-MS/MS analysis. Type of data set: ADME, organism-based. The conditions noted are these: in vivo.
Data set [5] is described as follows: Volume of distribution at steady state in Sprague-Dawley rat at 10 mg/kg, iv measured upto 24 hrs LC-MS/MS analysis. Type of data set: ADME, organism-based. The following applies: in vivo, read-out: Vdss.
Data set [6] concerns Pseudomonas aeruginosa. Nature of the data set: Antibacterial activity against Pseudomonas aeruginosa T-2022 assessed as inhibition of bacterial growth measured after 18 to 20 hrs by broth microdilution method. Type of data set: functional. The conditions noted are these: time 18-20 hrs. A general note: Dilution methods test growth across graded concentrations, often in twofold steps.

Data set [7] deals with Escherichia coli. Briefly: Antibacterial activity against Escherichia coli ATCC 35218 assessed as inhibition of bacterial growth measured after 18 to 20 hrs by broth microdilution method. It counts as functional. The conditions noted are these: time 18-20 hrs.
Data set [8] has as its system Escherichia coli. Nature of the data set: Antibacterial activity against Escherichia coli 14-2 assessed as inhibition of bacterial growth measured after 18 to 20 hrs by broth microdilution method. Type of data set: functional. The following applies: time 18-20 hrs.
Data set [9] has as its system Escherichia coli. Briefly: Antibacterial activity against Escherichia coli 14-4 assessed as inhibition of bacterial growth measured after 18 to 20 hrs by broth microdilution method. It counts as functional. The conditions noted are these: time 18-20 hrs.
In data set [10] the test system is Klebsiella pneumoniae. Briefly: Antibacterial activity against Klebsiella pneumoniae 15-1 assessed as inhibition of bacterial growth measured after 18 to 20 hrs by broth microdilution method. Type of data set: functional. The following applies: time 18-20 hrs.
The subject of data set [11] is Klebsiella pneumoniae. Briefly: Antibacterial activity against Klebsiella pneumoniae 15-4 assessed as inhibition of bacterial growth measured after 18 to 20 hrs by broth microdilution method. It counts as functional. The following applies: time 18-20 hrs.
Data set [12] relates to Klebsiella pneumoniae. Briefly: Antibacterial activity against Klebsiella pneumoniae 15-5 assessed as inhibition of bacterial growth measured after 18 to 20 hrs by broth microdilution method. It counts as functional. The following applies: time 18-20 hrs.
Data set [13] deals with Acinetobacter baumannii. Nature of the data set: Antibacterial activity against Acinetobacter baumannii 17-2 assessed as inhibition of bacterial growth measured after 18 to 20 hrs by broth microdilution method. The conditions noted are these: time 18-20 hrs. It counts as functional.
The test system of data set [14] is Acinetobacter baumannii. Briefly: Antibacterial activity against Acinetobacter baumannii 17-8 assessed as inhibition of bacterial growth measured after 18 to 20 hrs by broth microdilution method. Type of data set: functional. The following applies: time 18-20 hrs.
In data set [15] the test system is Pseudomonas aeruginosa. Briefly: Antibacterial activity against Pseudomonas aeruginosa 17-1 assessed as inhibition of bacterial growth measured after 18 to 20 hrs by broth microdilution method. It counts as functional. The following applies: time 18-20 hrs.
The subject of data set [16] is Pseudomonas aeruginosa. Nature of the data set: Antibacterial activity against Pseudomonas aeruginosa 19-5 assessed as inhibition of bacterial growth measured after 18 to 20 hrs by broth microdilution method. It counts as functional. The conditions noted are these: time 18-20 hrs.
Data set [17] relates to HepG2. Briefly: Cytotoxicity against human HepG2 cells assessed as inhibition of cell growth incubated for 24 hrs by CCK8 method. It counts as functional, cell-based. The following applies: HepG2, 24 h. For orientation: Tetrazolium dyes change colour on reduction, which living cells bring about.
Data set [18] relates to HepG2. Briefly: Cytotoxicity against human HepG2 cells assessed as inhibition of cell growth at 100 uM incubated for 24 hrs by CCK8 method relative to control. It counts as functional.
A short description of data set [19]: Cytotoxicity against HEK293T cells assessed as inhibition of cell growth incubated for 24 hrs by CCK8 method. Type of data set: toxicity, cell-based, HEK-293T. The following applies: human.
A short description of data set [20]: Cytotoxicity against HEK293T cells assessed as inhibition of cell growth at 100 uM incubated for 24 hrs by CCK8 method relative to control. It counts as toxicity, cell-based, HEK-293T. The following applies: human.
Data set [21] relates to Jurkat. Briefly: Cytotoxicity against human Jurkat cells assessed as inhibition of cell growth incubated for 24 hrs by CCK8 method. Type of data set: functional, cell-based.
The subject of data set [22] is Jurkat. Nature of the data set: Cytotoxicity against human Jurkat cells assessed as inhibition of cell growth at 100 uM incubated for 24 hrs by CCK8 method relative to control. Type of data set: functional.
Data set [23] relates to Pseudomonas aeruginosa. Briefly: Antibacterial efficacy against multi drug resistant Pseudomonas aeruginosa T-2022-D2-048 infected in cyclophosphamide-induced neutropenic thigh infection ICR mouse model assessed as decrease in bacterial burden administered as iv dose measured after 24 hrs. Type of data set: functional, organism-based. The conditions noted are these: dose 3-12 mg/kg.

Data set [24] has as its system Pseudomonas aeruginosa. Briefly: Antibacterial activity against multi drug resistant Pseudomonas aeruginosa T-2022-D2-048 infected in cyclophosphamide-induced neutropenic thigh infection ICR mouse model assessed as reduction in log CFU at 12 mg/kg, iv measured after 24 hrs. Type of data set: functional.
Data set [25] is described as follows: AUC (0 to t) in Sprague-Dawley rat at 10 mg/kg, po measured upto 24 hrs LC-MS/MS analysis. It counts as ADME, organism-based. The conditions noted are these: Sprague-Dawley, in vivo.
Data set [26] in a line: Tmax in Sprague-Dawley rat at 10 mg/kg, po measured upto 24 hrs LC-MS/MS analysis. The conditions noted are these: in vivo. It counts as ADME, organism-based.
Data set [27] can be described thus: Cmax in Sprague-Dawley rat at 10 mg/kg, po measured upto 24 hrs LC-MS/MS analysis. It counts as ADME, organism-based. The following applies: in vivo.
Data set [28] is described as follows: MRT in Sprague-Dawley rat at 10 mg/kg, po measured upto 24 hrs LC-MS/MS analysis. Type of data set: ADME, organism-based. The following applies: in vivo.
Data set [29] can be described thus: Half life in Sprague-Dawley rat at 10 mg/kg, po measured upto 24 hrs LC-MS/MS analysis. It counts as ADME, organism-based. The conditions noted are these: in vivo.
A short description of data set [30]: Oral bioavailability in Sprague-Dawley rat at 10 mg/kg measured upto 24 hrs LC-MS/MS analysis. Type of data set: ADME, organism-based. The conditions noted are these: Sprague-Dawley, in vivo.

Converted amounts (≈) assume the structure as drawn.

`CCCSSCc1ccc(-c2ncc(C(=O)N[C@@H](CCN)C(=O)N(C)[C@@H]3C(=O)N[C@@H](C)C(=O)N[C@H](C(=O)NCC#N)Cc4ccc(OCCN)c(c4)-c4cc3ccc4OCCN)c(C)n2)cc1` yielded an area under the curve AUC(0-t) at 24 h in [1] of 15300 ng·h/mL. This compound also came in with an MRT in data set [2] of 0.44 h. The compound further showed a half-life in [3] of 0.37 h. The clearance in [4] worked out at 10.8 mL/min/kg. Moreover, the Vd in data set [5] worked out at 0.285 L/kg.

`Cc1nc(-c2ccc(SSC(C)(C)C)cc2)ncc1C(=O)N[C@@H](CCN)C(=O)N(C)[C@@H]1C(=O)N[C@@H](C)C(=O)N[C@H](C(=O)NCC#N)Cc2ccc(OCCN)c(c2)-c2cc1ccc2OCCN`: in [1], the AUC(0-t) at 24 h was 170000 ng·h/mL. In [2], the MRT stood at 4.4 h. This compound showed a half-life in [3] of 2.8 h. Further, the clearance in [4] worked out at 0.954 mL/min/kg. In addition, the Vd in [5] was 0.252 L/kg.

Take `C[C@H]1COc2c(N3CCN(C)CC3)c(F)cc3c(=O)c(C(=O)O)cn1c23` [LEVOFLOXACIN ANHYDROUS]: the MIC in data set [6] was > 64 µg/mL.

`CCCSSc1ccc(-c2ncc(C(=O)N[C@@H](CCN)C(=O)N(C)[C@@H]3C(=O)N[C@@H](C)C(=O)N[C@H](C(=O)NCC#N)Cc4ccc(OCCN)c(c4)-c4cc3ccc4OCCN)c(C)n2)cc1.O=C(O)C(F)(F)F.O=C(O)C(F)(F)F.O=C(O)C(F)(F)F.O=C(O)C(F)(F)F`: the MIC in data set [7] was ≤ 0.03 µg/mL; in data set [8], ≤ 0.03 µg/mL; in data set [9] it was ≤ 0.03 µg/mL; in data set [10], ≤ 0.03 µg/mL; in data set [11], 0.125 µg/mL; in [12], 0.06 µg/mL. Besides, the MIC stood at 1 µg/mL in [13], 0.5 µg/mL in data set [14], 4 µg/mL in [15] and 4 µg/mL in [16]. In addition, the IC50 in [17] and in [21] was > 100 µM in each case. Moreover, the inhibition at 100 µM in [18] was -6.72%; in data set [22] it was 42.4%. Besides, in data set [19], the 50% inhibitory concentration (IC50) at 24 h is > 100 µM. Moreover, the inhibition at 24 h, 100 µM in data set [20] was 30.6%.

For `Cc1nc(-c2ccc(CSSC(C)(C)C)cc2)ncc1C(=O)N[C@@H](CCN)C(=O)N(C)[C@@H]1C(=O)N[C@@H](C)C(=O)N[C@H](C(=O)NCC#N)Cc2ccc(OCCN)c(c2)-c2cc1ccc2OCCN` [listing 1 of 2 here], in data set [23], the Activity entry was “Dose-Dependent Effect”.

In the case of `Cc1nc(-c2ccc(CSSC(C)(C)C)cc2)ncc1C(=O)N[C@@H](CCN)C(=O)N(C)[C@@H]1C(=O)N[C@@H](C)C(=O)N[C@H](C(=O)NCC#N)Cc2ccc(OCCN)c(c2)-c2cc1ccc2OCCN` [listing 2 of 2 here], the MIC in data set [6] amounted to 4 µg/mL (≈ 4.13 µM). For the same compound, the log CFU reduction in data set [24] came out at 3.5 log CFU/g. For the same compound, the results for the exposure AUC(0-t) at 24 h in [1] and in [25] were 142000 ng·h/mL and 70.1 ng·h/mL, respectively. Besides, the Tmax in data set [26] was 3.33 h. In [27], this compound displayed a Cmax of 11.5 ng/mL. Further, the mean residence time MRT in [2] came to 6.27 h; in [28], 5.63 h. Moreover, the figures for the half-life in data set [3] and in [29] were 4.18 h and 2.83 h, respectively. In data set [4], this compound returned a clearance of 1.16 mL/min/kg. The Vd in data set [5] was 0.435 L/kg. For the same compound, the bioavailability in [30] is 0.05%.

Usually AUC(0-t) stands for exposure summed from dosing to a finite time, without extrapolation to infinity. High values mean high exposure, low ones low exposure. As a reminder, the MRT is the average time that molecules of a dose stay in the body. What is called half-life is the time in which the quantity being followed falls by half. What is called clearance is the rate of elimination divided by the concentration. High values mean efficient removal, low ones inefficient removal. The MIC is the lowest concentration that inhibits growth of the organism. As a reminder, the IC50 is the point on the concentration scale where inhibition reaches its midpoint. For orientation: inhibition means the change of the read-out against control, counted positive when it falls. A word on the Tmax: it is the time at which the peak concentration occurs. The Cmax is the peak of the concentration-time curve. The bioavailability is the share of a dose that reaches the circulation, judged against a reference dose that is usually intravenous. Lower therefore signals poor availability.
